# Results taken from US20260041679A1, “METHOD OF TREATING HYPERTENSION WITH THE ALDOSTERONE SYNTHASE INHIBITOR BAXDROSTAT” (CINCOR PHARMA, INC., priority 2022, published 2026).
# Columns and labels:
# [1] = Multiple ascending dose study, pharmacokinetics (Example 2); format: in vivo, human
# Description: This randomized, double-blind, placebo-controlled phase 1 study evaluated the safety, pharmacokinetics, and pharmacodynamics of multiple ascending doses of baxdrostat in healthy volunteers. Fifty-six subjects were randomized to receive oral baxdrostat (0.5, 1.5, 2.5, or 5.0 mg) or placebo once daily for ten days and were placed on either a low salt or normal salt diet for the duration of the study. In particular, subjects were randomized into 5 cohorts to receive baxdrostat or placebo once daily for 10 days. Cohorts 1 and 2 were placed on a low salt diet to stimulate aldosterone production and were administered 2.5 or 5.0 mg oral baxdrostat, respectively. Cohorts 1 and 2 also underwent an adrenocorticotropic hormone (ACTH) challenge to increase aldosterone and cortisol levels to evaluate the specificity of baxdrostat for targeting aldosterone synthase. Cohorts 3, 4, and 5 were placed on a normal salt diet and were administered 1.5, 2.5, or 0.5 mg oral baxdrostat, respectively. Blood samples were collected prior to and after dosing on days 1 and 10 for measurement of plasma baxdrostat concentrations to characterize single-dose and steady-state pharmacokinetics. Pharmacodynamic measurements included plasma aldosterone, cortisol, and electrolytes. Safety assessments included physical examination, electrocardiograms, orthostatic vital signs, and clinical laboratory evaluations.
# aldosterone synthase = molecular target: T1, aldosterone synthase (Homo sapiens, UniProt P19099); test: Single ascending dose study, pharmacodynamics: aldosterone, cortisol with ACTH challenge (Example 1); format: in vivo
# T1 construct: Pharmacodynamic measurements included plasma aldosterone, cortisol, and electrolytes; endogenous in cells; host or cells: human subjects in vivo (healthy volunteers; resistant hypertension patients)
# T1 sequence (P19099 25-503): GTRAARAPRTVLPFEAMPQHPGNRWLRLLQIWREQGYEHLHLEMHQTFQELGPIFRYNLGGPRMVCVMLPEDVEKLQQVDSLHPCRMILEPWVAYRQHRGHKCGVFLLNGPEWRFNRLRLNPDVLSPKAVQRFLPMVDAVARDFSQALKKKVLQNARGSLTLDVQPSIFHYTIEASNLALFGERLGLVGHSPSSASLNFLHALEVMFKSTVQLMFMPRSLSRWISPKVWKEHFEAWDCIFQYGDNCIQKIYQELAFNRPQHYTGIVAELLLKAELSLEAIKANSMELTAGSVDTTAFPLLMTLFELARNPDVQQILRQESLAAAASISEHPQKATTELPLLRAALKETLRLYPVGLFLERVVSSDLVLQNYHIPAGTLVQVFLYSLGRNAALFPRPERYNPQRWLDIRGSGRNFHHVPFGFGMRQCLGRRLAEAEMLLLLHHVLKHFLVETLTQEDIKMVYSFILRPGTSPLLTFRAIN
# Description: Eighty-eight healthy male volunteers completed the first-in-human study of baxdrostat. In part 1 of the trial, subjects received a single oral dose of baxdrostat ranging from 1 to 360 mg in order to evaluate safety, tolerability, PK, and pharmacodynamics (PD). Part 2 evaluated the PK of a single 3 mg intravenous dose of baxdrostat.
compound,measurement,setting,value
"CCC(=O)N[C@@H]1CCCc2c(-c3ccc4c(c3)CCC(=O)N4C)cncc21 [baxdrostat, (R)—N-(4-(1-methyl-2-oxo-1,2,3,4-tetrahydroquinolin-6-yl)-5,6,7,8-tetrahydroisoquinolin-8-yl) propionamide]",plasma levels of baxdrostat vs dose,[1]; 0.5 to 5.0 mg once daily,increased proportionally with ascending doses
same,time of peak concentrations after dosing,[1]; 0.5 to 5.0 mg once daily,≤ 4 h
same,half-life,"[1]; human, plasma, oral, 0.5 to 5.0 mg once daily",26 to 31 h
same,absorption,"[1]; oral, healthy subjects",rapidly absorbed
same,cortisol levels with an adrenocorticotropin hormone challenge,aldosterone synthase; single oral dose,no meaningful effect on cortisol levels
same,aldosterone levels,"aldosterone synthase; single oral dose 1 to 360 mg, fasted, low salt and normal salt diet",significantly reduced aldosterone levels in a dose-dependent manner
